Reference: PubChem BioAssay AID2060890 (Molecular Pharmacology Branch, DTP, NCI, 2025)

Tested on: LG0703-F948-PDC complex spheroid viability
Test: Anticancer human tumor LG0703-F948-PDC patient-derived lung adenocarcinoma cell line growth inhibition [RAS]
Conditions: for IC50: curve of first compound; for viability, T/C: stronger effect = lower value
Description: RAS pathway inhibitors in Combinations in Complex Spheroids
A high-throughput screen of multi-cell type tumor spheroids was designed to identify active combinations of RAS pathway inhibitors and targeted small molecules. Complex spheroids include a stromal component modeled by human endothelial cells (HUVEC) and fibroblasts modeled by human mesenchymal stem cells (MSCs). The concentration ranges selected for each drug and investigational agent were based upon clinically achievable concentrations if the clinical Cmax of the agent was known.
Compounds. The drugs and investigational agents: abemaciclib (NSC768073), cobimetinib (NSC768068), divarasib (GDC6063, NSC841802), docetaxel (NSC628503), GDC-1971 (RLY-1971, NSC841576), gemcitabine (NSC613327), inavolisib (NSC800729), ipatasertib (NSC767898), KB-0742 (NSC834161), MRTX-1133 (NSC836407), osimertinib (NSC779217), RMC-4630 (NSC839698), RMC-6236 (NSC851965), RMC-6291 (NSC852671), Ro-3306 (NSC812927), sapanisertib (NSC764658), SN-38 (NSC673596), staurosporine (NSC755774), SY5609 (NSC837396), and tovorafenib (DAY101, NSC766906), were obtained from the National Cancer Institute (NCI) Developmental Therapeutics Program Chemical Repository. The FDA-approved anticancer drug set is available from the NCI Developmental Therapeutics Program. […] The stock solutions were prepared in dimethyl sulfoxide (DMSO, Sigma-Aldrich, St. Louis, MO, cat. D2650) at 800-fold the tested concentration and stored at -70 degrees C prior to their use. All drugs and investigational agents were tested over a range starting from a high concentration at or near the clinical Cmax and decreasing in half-log increments. If the clinical Cmax for an agent had not been determined, the highest concentration tested was 10 microM.
Cell Culture. All cells were maintained in an incubator at 37 degrees C and 5% CO2 with 95% humidity. The PDC lines were cultured according to standard operating procedures established by the NCI PDMR. All PDCs were thawed and cultured in Matrigel-coated flasks prepared with a working solution of 1X Ham's F-12 nutrient mix, without supplementation (Invitrogen, Waltham, MA, cat. 11765054), 100 U/mL penicillin-streptomycin (Invitrogen, cat. 15140122), and 2.5% Matrigel (Corning Inc., Corning, NY, cat. 354248) for the first three passages. The 362531-283-R-J2-PDC and 782815-120-R-J1-PDC lines were cultured in 6C/Colon 1B media, which includes advanced DMEM/F-12 (Thermo Fisher Scientific, cat. 12634028), 10 mM HEPES (Thermo Fisher Scientific, cat. 15630080), 1X GlutaMAX supplement (Thermo Fisher Scientific, cat. 35050061), 0.1 mg/mL primocin (InvivoGen, San Diego, CA, cat. ant-pm-2), 10% defined fetal bovine serum, heat inactivated (HyClone Laboratories Inc., Logan, UT, cat. SH30070.03HI), 50% L-WRN conditioned media (ATCC, cat. CRL-3276), 1.25 mM N-Acetyl-L-cysteine (Sigma-Aldrich, cat. A9165), 10 mM nicotinamide (Sigma-Aldrich, cat. N0636), 1X B-27 supplement (Thermo Fisher Scientific, cat. 17504044), 1X N-2 supplement (Thermo Fisher Scientific, cat. 17502048), 50 ng/mL human EGF (Thermo Fisher Scientific, cat. PHG0311), and 10 microM Y-27632 dihydrochloride (Tocris Bioscience, cat. 1254). The K12877-001-R-J1-PDC line was cultured in 6I media, which includes all 6C/Colon 1B media plus 10 ng/mL human FGF-10 (PeproTech, cat. 100-26), 1 ng/mL human FGF-2 (PeproTech, cat. 100-18B), 1 µM prostaglandin E2 (Tocris Bioscience, cat. 2296), […] hydrocortisone (Sigma-Aldrich, cat. H4001), and […] bovine insulin (Sigma-Aldrich, cat. I6634). The K86415-001-R-J1-PDC line was cultured in 6D media, which includes all 6C/Colon 1B media components minus the L-WRN conditioned media. The 485176-168-R4-J1-PDC was cultured in PANC media, which includes all 6C/Colon 1B media plus 100 ng/mL human FGF-10 (PeproTech, cat. 100-26), 500 nM SB-431542 (Selleckchem, cat. S1067), and 10 nM gastrin (Tocris Bioscience, cat. 3006). […]

[1] = second compound 0.0316 µM, first compound 0.00316 µM
[2] = second compound 0.0316 µM, first compound 0.01 µM
[3] = second compound 0.0316 µM, first compound 0.0316 µM
[4] = second compound 0.0316 µM, first compound 0.1 µM
[5] = second compound 0.0316 µM, first compound 0.316 µM
[6] = second compound 0.0316 µM, first compound 1 µM
[7] = second compound 0.1 µM, first compound 0.00316 µM
[8] = second compound 0.1 µM, first compound 0.01 µM
[9] = second compound 0.1 µM, first compound 0.0316 µM
[10] = second compound 0.1 µM, first compound 0.1 µM
[11] = second compound 0.1 µM, first compound 0.316 µM
[12] = second compound 0.1 µM, first compound 1 µM
[13] = second compound 0.316 µM, first compound 0.00316 µM
[14] = second compound 0.316 µM, first compound 0.01 µM
[15] = second compound 0.316 µM, first compound 0.0316 µM
[16] = second compound 0.316 µM, first compound 0.1 µM
[17] = second compound 0.316 µM, first compound 0.316 µM
[18] = second compound 0.316 µM, first compound 1 µM
[19] = second compound 1 µM, first compound 0.00316 µM
[20] = second compound 1 µM, first compound 0.01 µM
[21] = second compound 1 µM, first compound 0.0316 µM
[22] = second compound 1 µM, first compound 0.1 µM
[23] = second compound 1 µM, first compound 0.316 µM
[24] = second compound 1 µM, first compound 1 µM
[25] = second compound 3.16 µM, first compound 0.00316 µM
[26] = second compound 3.16 µM, first compound 0.01 µM
[27] = second compound 3.16 µM, first compound 0.0316 µM
[28] = second compound 3.16 µM, first compound 0.1 µM
[29] = second compound 3.16 µM, first compound 0.316 µM
[30] = second compound 3.16 µM, first compound 1 µM
[31] = second compound 10 µM, first compound 0.00316 µM
[32] = second compound 10 µM, first compound 0.01 µM
[33] = second compound 10 µM, first compound 0.0316 µM
[34] = second compound 10 µM, first compound 0.1 µM
[35] = second compound 10 µM, first compound 0.316 µM
[36] = second compound 10 µM, first compound 1 µM
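Throughout, for viability, T/C: 100% = DMSO vehicle wells.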

## C=CC(=O)Nc1cc(Nc2nccc(-c3cn(C)c4ccccc34)n2)c(OC)cc1N(C)CCN(C)C + C#Cc1c(F)ccc2cc(O)cc(-c3ncc4c(N5CC6CCC(C5)N6)nc(OCC56CCCN5CC(F)C6)nc4c3F)c12
Second compound 0.0316 µM
  IC50: 11 nM
Second compound 0.1 µM
  IC50: 9.22 nM
Second compound 0.316 µM
  IC50: 6.02 nM
Second compound 1 µM
  IC50: 4.22 nM
Second compound 3.16 µM
  IC50: < 3.16 nM
Second compound 10 µM
  IC50: < 3.16 nM
[1]
  viability, T/C: 96.5%
[2]
  viability, T/C: 53%
[3]
  viability, T/C: 17.6%
[4]
  viability, T/C: 12.5%
[5]
  viability, T/C: 11.1%
[6]
  viability, T/C: 8.76%
[7]
  viability, T/C: 84.3%
[8]
  viability, T/C: 47.4%
[9]
  viability, T/C: 15.8%
[10]
  viability, T/C: 14%
[11]
  viability, T/C: 13.8%
[12]
  viability, T/C: 8.56%
[13]
  viability, T/C: 69.2%
[14]
  viability, T/C: 34.9%
[15]
  viability, T/C: 15.6%
[16]
  viability, T/C: 11.2%
[17]
  viability, T/C: 10.1%
[18]
  viability, T/C: 8.31%
[19]
  viability, T/C: 56.2%
[20]
  viability, T/C: 31.5%
[21]
  viability, T/C: 14.2%
[22]
  viability, T/C: 10.2%
[23]
  viability, T/C: 9.15%
[24]
  viability, T/C: 7.05%
[25]
  viability, T/C: 48.8%
[26]
  viability, T/C: 25%
[27]
  viability, T/C: 10.1%
[28]
  viability, T/C: 11.4%
[29]
  viability, T/C: 8.78%
[30]
  viability, T/C: 6.8%
[31]
  viability, T/C: 33.5%
[32]
  viability, T/C: 10.2%
[33]
  viability, T/C: 10.5%
[34]
  viability, T/C: 7.37%
[35]
  viability, T/C: 6.33%
[36]
  viability, T/C: 4.43%

## CC(Nc1ccc2c(c1)OCCn1cc(N3C(=O)OCC3C(F)F)nc1-2)C(N)=O (stereo unspecified) + C#Cc1c(F)ccc2cc(O)cc(-c3ncc4c(N5CC6CCC(C5)N6)nc(OCC56CCCN5CC(F)C6)nc4c3F)c12
Second compound 0.0316 µM
  IC50: 1610 nM
Second compound 0.1 µM
  IC50: 1520 nM
Second compound 0.316 µM
  IC50: 903 nM
Second compound 1 µM
  IC50: 381 nM
Second compound 3.16 µM
  IC50: 62 nM
Second compound 10 µM
  IC50: < 31.6 nM
[3]
  viability, T/C: 96%
[4]
  viability, T/C: 88.5%
[5]
  viability, T/C: 76.3%
[6]
  viability, T/C: 56.4%
Second compound 0.0316 µM, first compound 3.16 µM
  viability, T/C: 39.9%
Second compound 0.0316 µM, first compound 10 µM
  viability, T/C: 21.6%
[9]
  viability, T/C: 80.7%
[10]
  viability, T/C: 81%
[11]
  viability, T/C: 66.5%
[12]
  viability, T/C: 56.3%
Second compound 0.1 µM, first compound 3.16 µM
  viability, T/C: 39.7%
Second compound 0.1 µM, first compound 10 µM
  viability, T/C: 19.5%
[15]
  viability, T/C: 78.1%
[16]
  viability, T/C: 71%
[17]
  viability, T/C: 59.9%
[18]
  viability, T/C: 50.8%
Second compound 0.316 µM, first compound 3.16 µM
  viability, T/C: 32%
Second compound 0.316 µM, first compound 10 µM
  viability, T/C: 12.5%
[21]
  viability, T/C: 77.7%
[22]
  viability, T/C: 71.2%
[23]
  viability, T/C: 52.7%
[24]
  viability, T/C: 32.2%
Second compound 1 µM, first compound 3.16 µM
  viability, T/C: 17.6%
Second compound 1 µM, first compound 10 µM
  viability, T/C: 9.15%
[27]
  viability, T/C: 54.1%
[28]
  viability, T/C: 47.5%
[29]
  viability, T/C: 34%
[30]
  viability, T/C: 18.7%
Second compound 3.16 µM, first compound 3.16 µM
  viability, T/C: 12.7%
Second compound 3.16 µM, first compound 10 µM
  viability, T/C: 4.54%
[33]
  viability, T/C: 48.1%
[34]
  viability, T/C: 31%
[35]
  viability, T/C: 15.2%
[36]
  viability, T/C: 7.38%
Second compound 10 µM, first compound 3.16 µM
  viability, T/C: 4.96%
Second compound 10 µM, first compound 10 µM
  viability, T/C: 2.4%

## O=C(c1ccc(F)c(F)c1Nc1ccc(I)cc1F)N1CC(O)([C@@H]2CCCCN2)C1 + C#Cc1c(F)ccc2cc(O)cc(-c3ncc4c(N5CC6CCC(C5)N6)nc(OCC56CCCN5CC(F)C6)nc4c3F)c12
Second compound 0.0316 µM
  IC50: 68.4 nM
Second compound 0.1 µM
  IC50: 62.1 nM
Second compound 0.316 µM
  IC50: 32.2 nM
Second compound 1 µM
  IC50: 32.8 nM
Second compound 3.16 µM
  IC50: 7.71 nM
Second compound 10 µM
  IC50: < 3.16 nM
[1]
  viability, T/C: 103%
[2]
  viability, T/C: 75.2%
[3]
  viability, T/C: 60.5%
[4]
  viability, T/C: 45.4%
[5]
  viability, T/C: 35.6%
[6]
  viability, T/C: 24.1%
[7]
  viability, T/C: 91.8%
[8]
  viability, T/C: 70.2%
[9]
  viability, T/C: 64%
[10]
  viability, T/C: 39.4%
[11]
  viability, T/C: 34.2%
[12]
  viability, T/C: 21.9%
[13]
  viability, T/C: 80.5%
[14]
  viability, T/C: 66.1%
[15]
  viability, T/C: 53.1%
[16]
  viability, T/C: 31.6%
[17]
  viability, T/C: 28.2%
[18]
  viability, T/C: 22.3%
[19]
  viability, T/C: 66%
[20]
  viability, T/C: 54.8%
[21]
  viability, T/C: 51.5%
[22]
  viability, T/C: 24.4%
[23]
  viability, T/C: 25.1%
[24]
  viability, T/C: 19.7%
[25]
  viability, T/C: 56.8%
[26]
  viability, T/C: 47.9%
[27]
  viability, T/C: 33.8%
[28]
  viability, T/C: 21.4%
[29]
  viability, T/C: 22.6%
[30]
  viability, T/C: 16.3%
[31]
  viability, T/C: 43.9%
[32]
  viability, T/C: 38.3%
[33]
  viability, T/C: 18.1%
[34]
  viability, T/C: 17.3%
[35]
  viability, T/C: 6.81%
[36]
  viability, T/C: 2.29%
